Reference: PubChem BioAssay AID248 (DTP/NCI, 2004)
Where “and” joins values, the source holds several entries; their conditions need not be identical. Identical values can stand only once. Inconclusive results and toxic doses are left out.

Tested on: L1210 leukemia ip in BDF1 mice, survival T/C
Assay: NCI In Vivo Anticancer Drug Screen. Data for tumor model L1210 Leukemia (intraperitoneal) in B6D2F1 (BDF1) mice
Details: endpoint: mean survival time, higher = longer survival
Summary of the method: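 Value reflects the ratio of survival in compound-treated mice to survival in vehicle-treated controls, with both groups carrying the same transplanted tumor.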

[1] = dose: 50.0 mg/kg/injection, schedule: Q01DX009 (ip), vehicle: saline with Tween-80
[2] = dose: 200.0 mg/kg/injection, schedule: Q01DX009 (ip), vehicle: saline with Tween-80
[3] = dose: 100.0 mg/kg/injection, schedule: Q01DX009 (ip), vehicle: Klucel (hydroxypropylcellulose) (HPC)
[4] = dose: 100.0 mg/kg/injection, schedule: Q04DX003 (ip), vehicle: Klucel (hydroxypropylcellulose) (HPC)
[5] = dose: 200.0 mg/kg/injection, schedule: Q01DX009 (ip), vehicle: Klucel (hydroxypropylcellulose) (HPC)
[6] = dose: 200.0 mg/kg/injection, schedule: Q04DX003 (ip), vehicle: Klucel (hydroxypropylcellulose) (HPC)
[7] = dose: 400.0 mg/kg/injection, schedule: Q04DX003 (ip), vehicle: Klucel (hydroxypropylcellulose) (HPC)
[8] = dose: 100.0 mg/kg/injection, schedule: Q01DX001 (ip), vehicle: saline
[9] = dose: 200.0 mg/kg/injection, schedule: Q01DX001 (ip), vehicle: saline
[10] = dose: 400.0 mg/kg/injection, schedule: Q01DX001 (ip), vehicle: saline
[11] = dose: 25.0 mg/kg/injection, schedule: Q01DX009 (ip), vehicle: saline
[12] = dose: 100.0 mg/kg/injection, schedule: Q04DX003 (ip), vehicle: saline with Tween-80
[13] = dose: 200.0 mg/kg/injection, schedule: Q04DX003 (ip), vehicle: saline with Tween-80
[14] = dose: 400.0 mg/kg/injection, schedule: Q04DX003 (ip), vehicle: saline with Tween-80
[15] = dose: 100.0 mg/kg/injection, schedule: Q01DX001 (ip), vehicle: saline with Tween-80
[16] = dose: 200.0 mg/kg/injection, schedule: Q01DX001 (ip), vehicle: saline with Tween-80
[17] = dose: 400.0 mg/kg/injection, schedule: Q01DX001 (ip), vehicle: saline with Tween-80
[18] = dose: 50.0 mg/kg/injection, schedule: Q01DX009 (ip), vehicle: saline
[19] = dose: 100.0 mg/kg/injection, schedule: Q01DX009 (ip), vehicle: saline
[20] = dose: 200.0 mg/kg/injection, schedule: Q01DX009 (ip), vehicle: saline
[21] = dose: 100.0 mg/kg/injection, schedule: Q01DX001 (ip), vehicle: carboxymethylcellulose (CMC)
[22] = dose: 200.0 mg/kg/injection, schedule: Q01DX001 (ip), vehicle: carboxymethylcellulose (CMC)
[23] = dose: 400.0 mg/kg/injection, schedule: Q01DX001 (ip), vehicle: carboxymethylcellulose (CMC)
[24] = dose: 100.0 mg/kg/injection, schedule: Q04DX003 (ip), vehicle: saline
[25] = dose: 200.0 mg/kg/injection, schedule: Q04DX003 (ip), vehicle: saline

Compound: CC1(C)N=C(N)N=C(N)N1c1cccc(C(=O)Nc2ccc(S(=O)(=O)F)cc2)c1
- T/C (dose: 0.8 mg/kg/injection, schedule: Q01DX009 (ip), vehicle: saline): 98 % of control
- T/C (dose: 4.0 mg/kg/injection, schedule: Q01DX009 (ip), vehicle: saline): 101 % of control
- T/C (dose: 20.0 mg/kg/injection, schedule: Q01DX009 (ip), vehicle: saline): 98 % of control

Compound: CC1(C)CC(=O)C(c2ccc([N+](=O)[O-])cc2)=C(O)c2ccccc21
- T/C [1]: 91 % of control
- T/C (dose: 100.0 mg/kg/injection, schedule: Q01DX009 (ip), vehicle: saline with Tween-80): 94 % of control
- T/C [2]: 91 % of control

Compound: O=C1C=CC(=O)N1CCCN1C(=O)C=CC1=O
- T/C (dose: 2.2 mg/kg/injection, schedule: Q01DX Z (ip), vehicle: methylcellulose (MC)): 94 % of control
- T/C (dose: 3.3 mg/kg/injection, schedule: Q01DX Z (ip), vehicle: methylcellulose (MC)): 88 % of control
- T/C (dose: 5.0 mg/kg/injection, schedule: Q01DX Z (ip), vehicle: methylcellulose (MC)): 96 % of control

Compound: Cc1cc(Cl)c(Cl)cc1NC(=O)Nc1ccccc1F
- T/C (dose: 100.0 mg/kg/injection, schedule: Q01DX009 (ip), vehicle: other): 89 % of control and 92 % of control
- T/C (dose: 200.0 mg/kg/injection, schedule: Q01DX009 (ip), vehicle: other): 89 % of control
- T/C (dose: 400.0 mg/kg/injection, schedule: Q01DX009 (ip), vehicle: other): 98 % of control and 90 % of control

Compound: O=[N+]([O-])c1ccc(C(Cl)C2(Br)C=c3ccccc3=C2)cc1 (configuration not stated)
- T/C [3]: 103 % of control
- T/C [4]: 105 % of control
- T/C [5]: 98 % of control
- T/C [6]: 94 % of control
- T/C (dose: 400.0 mg/kg/injection, schedule: Q01DX009 (ip), vehicle: Klucel (hydroxypropylcellulose) (HPC)): 95 % of control
- T/C [7]: 97 % of control

Compound: CC(C)Nc1nc(NC(C)C)nc(NC(C)C)n1
- T/C [4]: 92 % of control
- T/C [6]: 87 % of control
- T/C [7]: 90 % of control

Compound: O=S(=O)(C1CC1c1ccccc1)N1CCOCC1 (configuration not stated)
- T/C [8]: 101 % of control
- T/C [9]: 106 % of control
- T/C [10]: 95 % of control

Compound: CC1(C)N=C(N)N=C(N)N1c1cccc(C#N)c1
- T/C (dose: 7.0 mg/kg/injection, schedule: Q01DX009 (ip), vehicle: saline): 118 % of control
- T/C (dose: 10.0 mg/kg/injection, schedule: Q01DX009 (ip), vehicle: saline): 116 % of control
- T/C (dose: 16.0 mg/kg/injection, schedule: Q01DX009 (ip), vehicle: saline): 113 % of control
- T/C (dose: 17.0 mg/kg/injection, schedule: Q01DX009 (ip), vehicle: saline): 108 % of control
- T/C [11]: 123 % of control
- T/C (dose: 37.0 mg/kg/injection, schedule: Q01DX009 (ip), vehicle: saline): 151 % of control and 161 % of control
- T/C (dose: 37.5 mg/kg/injection, schedule: Q01DX009 (ip), vehicle: saline): 120 % of control
- T/C (dose: 56.0 mg/kg/injection, schedule: Q01DX009 (ip), vehicle: saline): 172 % of control
- T/C (dose: 84.5 mg/kg/injection, schedule: Q01DX009 (ip), vehicle: saline): 150 % of control

Compound: O=C(NCCCNC(=O)Nc1ccc(C2=NCCN2)cc1)Nc1ccc(C2=NCCN2)cc1
- T/C (dose: 0.5 mg/kg/injection, schedule: Q01DX Z (ip), vehicle: carboxymethylcellulose (CMC)): 105 % of control
- T/C (dose: 1.0 mg/kg/injection, schedule: Q01DX Z (ip), vehicle: carboxymethylcellulose (CMC)): 105 % of control
- T/C (dose: 8.0 mg/kg/injection, schedule: Q01DX Z (ip), vehicle: water): 122 % of control
- T/C (dose: 12.0 mg/kg/injection, schedule: Q01DX Z (ip), vehicle: carboxymethylcellulose (CMC)): 225 % of control
- T/C (dose: 16.0 mg/kg/injection, schedule: Q01DX Z (ip), vehicle: carboxymethylcellulose (CMC)): 223 % of control
- T/C (dose: 16.0 mg/kg/injection, schedule: Q01DX Z (ip), vehicle: water): 210 % of control
- T/C (dose: 24.0 mg/kg/injection, schedule: Q01DX Z (ip), vehicle: carboxymethylcellulose (CMC)): 223 % of control
- T/C (dose: 31.0 mg/kg/injection, schedule: Q01DX Z (ip), vehicle: carboxymethylcellulose (CMC)): 177 % of control

Compound: CC(C)CC(NC(=O)CNC(=O)CNC(=O)OCc1ccccc1)C(=O)O (configuration not stated)
- T/C [12]: 100 % of control
- T/C [13]: 103 % of control
- T/C [14]: 105 % of control

Compound: NC(=S)N=Nc1c(O)n2c3c(cccc13)CCc1ccccc1-2
- T/C [12]: 92 % of control
- T/C [13]: 96 % of control
- T/C [14]: 94 % of control

Compound: CCCC1CCC(=C2C(=O)CCC2=O)O1 (configuration not stated)
- T/C (dose: 3.13 mg/kg/injection, schedule: Q01DX009 (ip), vehicle: saline): 95 % of control
- T/C (dose: 6.25 mg/kg/injection, schedule: Q01DX009 (ip), vehicle: saline): 98 % of control
- T/C (dose: 12.5 mg/kg/injection, schedule: Q01DX009 (ip), vehicle: saline): 106 % of control
- T/C [11]: 104 % of control

Compound: C=CCC(CCCCCCCCCCC)C(=O)O (configuration not stated)
- T/C [15]: 111 % of control
- T/C [16]: 97 % of control
- T/C [17]: 90 % of control

Compound: CC(=O)Nc1ccc(OC(=O)Nc2c(C)cccc2C)cc1
- T/C [4]: 100 % of control
- T/C [6]: 91 % of control
- T/C [7]: 91 % of control

Compound: NC1=NC(CCc2ccccc2)N(c2cccc(Cl)c2)C(N)=N1 (configuration not stated)
- T/C (dose: 6.25 mg/kg/injection, schedule: Q01DX001 (ip), vehicle: saline): 104 % of control
- T/C (dose: 12.5 mg/kg/injection, schedule: Q01DX001 (ip), vehicle: saline): 98 % of control
- T/C (dose: 25.0 mg/kg/injection, schedule: Q01DX001 (ip), vehicle: saline): 106 % of control

Compound: COc1cccc(C(=O)O)c1OC
- T/C (dose: 100.0 mg/kg/injection, schedule: Q04DX003 (ip), vehicle: saline sonified): 95 % of control
- T/C (dose: 200.0 mg/kg/injection, schedule: Q04DX003 (ip), vehicle: saline sonified): 95 % of control
- T/C (dose: 400.0 mg/kg/injection, schedule: Q04DX003 (ip), vehicle: saline sonified): 97 % of control

Compound: Fc1ccc(NC(=S)SCc2ccc(Cl)c(Cl)c2)cc1F
- T/C [1]: 108 % of control
- T/C [12]: 102 % of control
- T/C [2]: 112 % of control
- T/C [13]: 106 % of control

Compound: C/C=N/NC(=O)c1ccc[n+](C)c1
- T/C [18]: 93 % of control
- T/C [19]: 96 % of control
- T/C [20]: 96 % of control

Compound: CCN1CCC(S(=O)(=O)CCS(=O)(=O)C2CCN(CC)C2)C1 (configuration not stated)
- T/C [21]: 95 % of control
- T/C [22]: 94 % of control
- T/C [23]: 94 % of control

Compound: O=C1NC(=O)C(Cc2ccccc2)(Cc2ccccc2)C(=O)N1Cc1ccccc1
- T/C [21]: 90 % of control
- T/C [22]: 90 % of control
- T/C [23]: 98 % of control

Compound: O=C(N/N=C/c1[nH]c(=S)[nH]c(=O)c1Cc1ccc(Cl)cc1)c1ccccc1
- T/C [15]: 96 % of control
- T/C [16]: 92 % of control
- T/C [17]: 123 % of control

Compound: CCCCn1nnc2ccc([N+](=O)[O-])cc2c1=O
- T/C [3]: 92 % of control
- T/C [5]: 87 % of control

Compound: Nc1nc2c(c(-c3ccccc3)n1)CN(CCCC(=O)O)C2=O
- T/C [8]: 103 % of control
- T/C [24]: 100 % of control
- T/C [9]: 105 % of control
- T/C [25]: 98 % of control
- T/C [10]: 97 % of control
- T/C (dose: 400.0 mg/kg/injection, schedule: Q04DX003 (ip), vehicle: saline): 100 % of control

Compound: O=c1ccn2ccccc2n1
- T/C [18]: 101 % of control
- T/C [19]: 99 % of control
- T/C [24]: 103 % of control
- T/C [20]: 98 % of control
- T/C [25]: 109 % of control

Compound: N#Cc1ccc(O)c(N)c1
- T/C [8]: 95 % of control
- T/C [9]: 90 % of control
- T/C [10]: 90 % of control

Compound: CCC(=O)OC1(c2ccccc2)CCN(CCC(O)c2ccccc2)CC1C (configuration not stated)
- T/C (dose: 20.0 mg/kg/injection, schedule: Q04DX003 (ip), vehicle: Klucel (hydroxypropylcellulose) (HPC)): 105 % of control
- T/C (dose: 40.0 mg/kg/injection, schedule: Q04DX003 (ip), vehicle: Klucel (hydroxypropylcellulose) (HPC)): 105 % of control
